From US4990499A, “Anti-herpes simplex virus activity of 5-alkoxymethyl-2'-deoxycytidimes and their 5-monophosphates” (priority 1989, dated 1991)

Legend:
[1] = tested on: Deoxynucleoside Triphosphate (dNTP) Pools in Uninfected Vero Cells; assay: Deoxynucleoside triphosphate (dNTP) pools in uninfected (mock-infected) Vero cells; format: cell-based; settings: Table 7, uninfected Vero cells, treatment 7 hours, ± S.E.
How it was run: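 Vero cells were mock-infected for 1 h, then treated with MMdCyd, H4 dUrd, both together, dGUO ± H4 dUrd, or N-methyl-MMdCyd, with untreated cells as control. dNTP pools were measured, and values are means of at least two assays of triplicate cell cultures.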

[2] = Inhibition of proliferation (MTC), MT4 cells; format: cell-based; settings: human, highest concentration tested
Protocol: Inhibitory effects of MMdCyd on the proliferation of murine and human tumor cells was also investigated. MTC for MMdCyd was greater than 400 μg/ml (highest concentration tested) against Raji, MOLT/4F, MT4, CEM and H-9 (human) and L1210 (murine Leukemia) cells.

COCc1cn([C@H]2C[C@H](O)[C@@H](CO)O2)c(=O)nc1N [MMdCyd, 5-methoxymethyl-2'-deoxycytidine]
dATP pool [1]: 8.3 ± 0.32 .rho.moles/10^6 cells | dCTP pool [1]: 14.2 ± 1.30 .rho.moles/10^6 cells | dGTP pool [1]: 52 ± 1.84 .rho.moles/10^6 cells | dTTP pool [1]: 44 ± 1.67 .rho.moles/10^6 cells | MCC [2]: > 400 µg/mL
